From patent publication US20240217990A1 (Gilead Sciences, Inc., priority 2021, published 2024)

Key:
TLR8 = molecular target: T1, TLR8 (Homo sapiens, UniProt Q9NR97); test: TLR8 human PBMC cell-based assay (antagonist, Compound A stimulated cytokine release); conditions: human PBMCs; TLR8 agonist Compound A 800 nM, 6 hours; cytokines (TNFa and IL 12p40) in supernatant; read-out: TLR-8 EC50
T1 construct: Human peripheral blood mononuclear cells (PBMCs) consist of lymphocytes, monocytes and dendritic cells that express TLR7, TLR8 and TLR9; endogenous in cells; host or cells: cryopreserved human PBMCs from healthy donors
T1 sequence (Q9NR97 27-1041): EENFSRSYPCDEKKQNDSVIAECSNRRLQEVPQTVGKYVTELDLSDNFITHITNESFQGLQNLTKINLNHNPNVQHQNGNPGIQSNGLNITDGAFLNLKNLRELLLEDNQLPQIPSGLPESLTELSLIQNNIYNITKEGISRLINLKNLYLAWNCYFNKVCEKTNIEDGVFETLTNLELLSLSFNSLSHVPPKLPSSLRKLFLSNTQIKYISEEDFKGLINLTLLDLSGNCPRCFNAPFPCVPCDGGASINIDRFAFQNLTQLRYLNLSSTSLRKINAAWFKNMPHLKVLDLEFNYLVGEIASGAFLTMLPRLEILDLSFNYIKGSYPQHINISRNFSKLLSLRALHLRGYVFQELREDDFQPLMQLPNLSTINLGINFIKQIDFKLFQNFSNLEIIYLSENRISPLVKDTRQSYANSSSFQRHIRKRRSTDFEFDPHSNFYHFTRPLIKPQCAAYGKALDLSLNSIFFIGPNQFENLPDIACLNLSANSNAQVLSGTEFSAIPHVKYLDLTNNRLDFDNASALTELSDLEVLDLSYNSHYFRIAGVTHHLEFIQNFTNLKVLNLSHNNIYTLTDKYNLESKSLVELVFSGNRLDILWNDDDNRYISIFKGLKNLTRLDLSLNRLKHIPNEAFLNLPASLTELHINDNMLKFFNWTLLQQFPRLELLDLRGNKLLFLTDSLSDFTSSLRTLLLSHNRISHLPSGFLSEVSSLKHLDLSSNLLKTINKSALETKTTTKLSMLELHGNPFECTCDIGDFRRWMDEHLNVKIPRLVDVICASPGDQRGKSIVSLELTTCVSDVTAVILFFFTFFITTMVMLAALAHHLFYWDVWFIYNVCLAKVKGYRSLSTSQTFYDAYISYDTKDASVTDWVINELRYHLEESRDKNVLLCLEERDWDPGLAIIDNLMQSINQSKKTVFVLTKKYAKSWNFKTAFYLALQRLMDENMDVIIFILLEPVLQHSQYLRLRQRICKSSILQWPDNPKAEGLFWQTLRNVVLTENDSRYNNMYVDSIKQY
Outline: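 Cryopreserved donor PBMCs (100,000/well, RPMI + 10% FBS) were preincubated 1 h with antagonist (10-point dose response, quadruplicate), then stimulated with Compound A (800 nM final) for 6 h at 37 °C. TNFa and IL-12p40 in supernatants were measured by electrochemiluminescence; sigmoidal fits gave EC50.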

TLR7 = molecular target: T2, TLR7 (Homo sapiens, UniProt Q9NYK1); test: TLR7 human PBMC cell-based assay (antagonist, GS-986 stimulated cytokine release); conditions: human PBMCs; TLR7 agonist GS-986 400 nM, 6 hours; cytokines (IL-6 and IFNα) in supernatant; read-out: TLR-7 EC50
T2 construct: Human peripheral blood mononuclear cells (PBMCs) consist of lymphocytes, monocytes and dendritic cells that express TLR7, TLR8 and TLR9; endogenous in cells; host or cells: cryopreserved human PBMCs from healthy donors
T2 sequence (Q9NYK1 27-1049): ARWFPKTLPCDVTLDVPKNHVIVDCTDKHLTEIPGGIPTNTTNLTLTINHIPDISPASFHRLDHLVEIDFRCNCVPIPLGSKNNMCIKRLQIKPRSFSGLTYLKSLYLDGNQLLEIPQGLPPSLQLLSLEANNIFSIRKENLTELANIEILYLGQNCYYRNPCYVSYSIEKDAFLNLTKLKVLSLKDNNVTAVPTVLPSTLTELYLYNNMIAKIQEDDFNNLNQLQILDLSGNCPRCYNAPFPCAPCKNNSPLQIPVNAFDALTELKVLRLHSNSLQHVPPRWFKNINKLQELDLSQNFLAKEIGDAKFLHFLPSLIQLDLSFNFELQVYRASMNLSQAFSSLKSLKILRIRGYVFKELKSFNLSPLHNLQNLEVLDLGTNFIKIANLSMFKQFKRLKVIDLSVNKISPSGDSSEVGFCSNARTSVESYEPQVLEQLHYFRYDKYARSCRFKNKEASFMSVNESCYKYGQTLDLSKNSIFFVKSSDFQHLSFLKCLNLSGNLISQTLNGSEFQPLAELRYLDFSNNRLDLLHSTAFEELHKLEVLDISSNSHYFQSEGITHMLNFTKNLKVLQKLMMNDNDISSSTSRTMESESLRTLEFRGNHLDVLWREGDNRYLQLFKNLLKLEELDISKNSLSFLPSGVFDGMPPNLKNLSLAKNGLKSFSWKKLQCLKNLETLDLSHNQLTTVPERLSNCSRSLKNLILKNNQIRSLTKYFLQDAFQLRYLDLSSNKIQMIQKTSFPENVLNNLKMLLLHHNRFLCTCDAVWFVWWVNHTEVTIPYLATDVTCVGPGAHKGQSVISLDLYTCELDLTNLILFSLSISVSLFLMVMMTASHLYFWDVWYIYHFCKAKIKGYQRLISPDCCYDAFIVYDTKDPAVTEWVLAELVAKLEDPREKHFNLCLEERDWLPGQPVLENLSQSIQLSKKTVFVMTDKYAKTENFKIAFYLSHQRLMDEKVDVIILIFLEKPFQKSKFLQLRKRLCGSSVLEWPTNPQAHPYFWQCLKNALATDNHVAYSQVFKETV
Outline: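 EC50 derived by sigmoidal fitting of IL-6 and IFNα levels, quantified by electrochemiluminescence in supernatants of human PBMCs given 400 nM GS-986 for 6 h. Cells (100,000/well in RPMI-1640, 10% FBS) had received test antagonist 1 h beforehand, 10 doses in quadruplicate, at 37 °C.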

| EC50 (TLR8) [nM] | EC50 (TLR7) [nM] | Compound |
| --- | --- | --- |
| 0.7 | 1.3 | Cc1cc(-c2[nH]c3cc(-c4cnn(C5CCN(CCO)CC5)c4)sc3c2C(C)C)cn2ncnc12 [Example 189] |
| 136 | 34.8 | Cc1cc(-c2[nH]c3cc(C(=O)N(C)C4CCC(N5CCC(F)(F)C5)CC4)sc3c2C(C)C)cn2ncnc12 (stereo not drawn) [Example 254] |
| 30 | 35.9 | Cc1cc(-c2[nH]c3cc(C(=O)N4CCC5CCNC5C4)sc3c2C(C)C)cc(C)n1 (stereo not drawn) [Example 30] |
| 40.2 | 8.8 | Cc1cc(-c2[nH]c3cc(C(=O)N(C)C4CCN(CC#N)CC4)sc3c2C(C)C)cn2ncnc12 [Example 182] |
| 78.8 | 2.2 | Cc1cc(-c2[nH]c3cc(C(=O)N4C[C@@H](N)CC[C@@H]4C)sc3c2C(C)C)cn2ncnc12 [Example 101] |
| 16.1 | 25.7 | CC(C)c1c(-c2ccc3ncnn3c2)[nH]c2cc(C(=O)N3CCNCC3)sc12 [Example 66] |
| 35 | 45.2 | Cc1cc(-c2[nH]c3cc(C(=O)N(C)CCN4CCOCC4)sc3c2C(C)C)cn2ncnc12 [Example 95] |
| 6 | 13.5 | Cc1cc(-c2[nH]c3cc(-c4cnn(C5CCN(CC(N)=O)CC5)c4)sc3c2C(C)C)cn2ncnc12 [Example 172] |
| 16 | 36.6 | Cc1cc(-c2[nH]c3cc(-c4nnc(C5CCNCC5)o4)sc3c2C(C)C)cc(C)n1 [Example 52, 2-[5-(2,6-dimethyl-4-pyridyl)-6-isopropyl-4H-thieno[3,2-b]pyrrol-2-yl]-5-(4-piperidyl)-1,3,4-oxadiazole] |
| 2.6 | 6.4 | Cc1cc(-c2[nH]c3cc(C(=O)N4CCN(C)CC4)sc3c2C(C)C)cn2ncnc12 [Example 43] |
| 6 | 0.2 | Cc1nc(N2CCNCC2)ccc1-c1cc2[nH]c(-c3cc(C)c4ncnn4c3)c(C(C)C)c2s1 [Example 217] |
| 15.4 | 0.3 | Cc1cc(-c2[nH]c3cc(C4CCC5(CC4)CN(C(=O)[C@@H]4CCCN4C)C5)sc3c2C(C)C)cn2ncnc12 [Example 206] |
| 9.5 | 0.5 | Cc1cc(-c2[nH]c3cc(C(=O)N(C)[C@H]4CCNC[C@H]4F)sc3c2C(C)C)cn2ncnc12 [Example 80] |
| 5.7 | 4.8 | Cc1cc(-c2[nH]c3cc(C4CCCNC4)sc3c2C(C)C)cn2ncnc12 (stereo not drawn) [Example 155] |
| 26.9 | 33.7 | Cc1cc(-c2[nH]c3cc(C(=O)N4C[C@@H]5NCCO[C@@H]5C4)sc3c2C(C)C)cn2ncnc12 [Example 132] |
| 27 | 0.7 | Cc1cc(-c2[nH]c3cc(C(=O)N(C4CCNCC4)C4CC4)sc3c2C(C)C)cn2ncnc12 [Example 143] |
| 4.2 | 1.3 | Cc1cc(-c2[nH]c3cc(C4CCN(C(=O)CN5CCCC5)CC4)sc3c2C(C)C)cn2ncnc12 [Example 196, 1-(4-(6-isopropyl-5-(8-methyl-[1,2,4]triazolo[1,5-a]pyridin-6-yl)-4H-thieno[3,2-b]pyrrol-2-yl)piperidin-1-yl)-2-(pyrrolidin-1-yl)ethan-1-one] |

| EC50 (TLR8) [nM] | EC50 (TLR7) [nM] | Compound |
| --- | --- | --- |
| 66.2 | 70.6 | Cc1cc(-c2[nH]c3cc(C(=O)N4C[C@H]5C[C@@H]4CN5)sc3c2C(C)C)cc(C)n1 [Example 21] |
| 3.3 | 0.9 | COc1cc(-c2[nH]c3cc(C(=O)N4CCNCC4)sc3c2C(C)C)cn2ncnc12 [Example 64, (6-isopropyl-5-(8-methoxy-[1,2,4]triazolo[1,5-a]pyridin-6-yl)-4H-thieno[3,2-b]pyrrol-2-yl)(piperazin-1-yl)methanone] |
| 0.3 | 1.3 | Cc1cc(-c2[nH]c3cc(-c4ccc5c(c4)CN(CCO)CC5)sc3c2C(C)C)cn2ncnc12 [Example 188] |
| 301 | 21 | Cc1c(C(=O)N2CCNCC2)sc2c(C(C)C)c(-c3cc(C)c4ncnn4c3)[nH]c12 [Example 240, (6-isopropyl-3-methyl-5-(8-methyl-[1,2,4]triazolo[1,5-a]pyridin-6-yl)-4H-thieno[3,2-b]pyrrol-2-yl)(piperazin-1-yl)methanone] |
| 1 | 3.3 | Cc1cc(-c2[nH]c3cc(-c4cnc5c(c4)CCNC5)sc3c2C(C)C)cn2ncnc12 [Example 218] |
| 66.6 | 42.2 | Cc1cc(-c2[nH]c3cc(C(=O)N4CCC[C@@H](N)C4)sc3c2C(C)C)cc(C)n1 [Example 12] |
| 33 | 12.5 | Cc1cc(-c2[nH]c3cc(C(=O)N(C)[C@H]4CCN(CC(N)=O)C4)sc3c2C(C)C)cn2ncnc12 [Example 179] |
| 40.3 | 9 | Cc1cc(-c2[nH]c3cc(C(=O)N4C[C@@H](N)C[C@@H](C(F)(F)F)C4)sc3c2C(C)C)cn2ncnc12 [Example 77] |
| 3 | 9.7 | Cc1cc(-c2[nH]c3cc(C(=O)N4CCNCC4)sc3c2C(C)C)cn(C)c1=O [Example 34] |
| 6 | 0.3 | Cc1cc(-c2[nH]c3cc(-c4cn(C5CCNCC5)nn4)sc3c2C(C)C)cn2ncnc12 [Example 263, 6-isopropyl-5-(8-methyl-[1,2,4]triazolo[1,5-a]pyridin-6-yl)-2-(1-(piperidin-4-yl)-1H-1,2,3-triazol-4-yl)-4H-thieno[3,2-b]pyrrole] |
| 10.5 | 10.5 | Cc1cc(-c2[nH]c3cc(C(=O)N4C[C@@H]5[C@@H](N)[C@@H]5C4)sc3c2C(C)C)cn2ncnc12 [Example 74] |
| 5.1 | 5.1 | Cc1cc(-c2[nH]c3cc(-c4nc(C5CCN(CC(N)=O)CC5)no4)sc3c2C(C)C)cn2ncnc12 [Example 166] |
| 26.2 | 2.5 | Cc1cc(-c2[nH]c3cc(C(=O)N4CCC5CCNCC54)sc3c2C(C)C)cn2ncnc12 (stereo not drawn) [Example 89] |
| 72.9 | 60 | Cc1cc(-c2[nH]c3cc(C(=O)N4C5CNCC4COC5)sc3c2C(C)C)cc(C)n1 [Example 15] |
| 8.6 | 0.7 | Cc1cc(-c2[nH]c3cc(C4CCN(C(=O)C5CCN(C)C5)CC4)sc3c2C(C)C)cn2ncnc12 (stereo not drawn) [Example 201] |
| 9.2 | 24.4 | Cc1cc(-c2[nH]c3cc(C(=O)N4CCN(CCO)CC4)sc3c2C(C)C)cn2ncnc12 [Example 69] |
